Results reported in PubChem BioAssay (NCI).
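The compound was tested at five concentrations on cells cultured in 96-well plates, with a 48-hour exposure period. GI50: concentration for 50% inhibition of growth. At the TGI there is no net growth.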

Experiments:
Assay in all cases: NCI tumour cell line growth inhibition, 48 h
786-0 renal = tested on: 786-0 renal
OVCAR-3 ovarian = tested on: OVCAR-3 ovarian
IGROV1 ovarian = tested on: IGROV1 ovarian
A498 renal = tested on: A498 renal
NCI-H460 lung = tested on: NCI-H460 lung
SNB-19 CNS = tested on: SNB-19 CNS
CAKI-1 renal = tested on: CAKI-1 renal
PC-3 prostate = tested on: PC-3 prostate
HCT-15 colon = tested on: HCT-15 colon
DU-145 prostate = tested on: DU-145 prostate

Compound	GI50 (786-0 renal) [µM]	TGI (786-0 renal) [µM]	GI50 (OVCAR-3 ovarian) [µM]	TGI (OVCAR-3 ovarian) [µM]	GI50 (IGROV1 ovarian) [µM]	TGI (IGROV1 ovarian) [µM]	GI50 (A498 renal) [µM]	TGI (A498 renal) [µM]	GI50 (NCI-H460 lung) [µM]	TGI (NCI-H460 lung) [µM]	GI50 (SNB-19 CNS) [µM]	TGI (SNB-19 CNS) [µM]	GI50 (CAKI-1 renal) [µM]	TGI (CAKI-1 renal) [µM]	GI50 (PC-3 prostate) [µM]	TGI (PC-3 prostate) [µM]	GI50 (HCT-15 colon) [µM]	TGI (HCT-15 colon) [µM]	GI50 (DU-145 prostate) [µM]	TGI (DU-145 prostate) [µM]
COC(=O)C1=C2CO[C@@H]3C[C@H]4C(C)(C)CCC[C@]4(C)C(=CC1)[C@]23C	41.5	> 100	11.1	32.2	60.7	> 100	67.5	> 100	51.1	> 100	46.8	> 100	19.5	52.1	0.229	0.692	41.7	> 100	44	> 100
c1cc(-c2cnn3nc(N4CCOCC4)ccc23)nc(NC2CC2)n1	8.9	> 25	8.17	> 25	10.3	> 25	5.66	16.6	6.61	> 25	10.6	> 25	7.21	> 25	7.87	> 25	8.66	> 25	8.66	> 25
Cc1cc(S(=O)(=O)Nc2nc3ccsc3c(=O)n2Cc2ccccc2)c(S)cc1Cl	32.2	> 100	24.3	53	43.1	> 100	14.2	49.3	23.6	71	32.4	> 100	41.2	> 100	40.4	> 100	74.5	> 100	34.6	> 100
O=C(Nc1ccc([N+](=O)[O-])cc1)c1cc2ccccc2cc1O	0.399	1.91	0.397	15.8	0.575	12.5	0.197	0.628	0.365	6.31	0.405	27.8	0.26	0.955	0.937	7.88	0.365	5.07	0.484	> 100
Cc1cccc2cc3ccc4ccccc4c3cc12		> 100		> 100		> 100		> 100		83.2		> 100		> 100		> 100		> 100		> 100
CO[C@H]1/C=C/C[C@H](C)[C@@H](C)S(=O)(=O)NC(=O)c2ccc3c(c2)N(C[C@@H]2CC[C@H]21)C[C@@]1(CCCc2cc(Cl)ccc21)CO3	2.9	8.27	1.9	3.75	3.08	10.6	1.45	3.47	1.99	4.17	3.45	14.1	3.45	12.9	1.98	6.23	2.54	8.43	4.56	15.3
O=C1/C(=C/c2ccc(C(F)(F)F)cc2)COc2ccc(O)cc21	1.91	4.17	1.7	3.09	1.6	3.17	11.6	24	3.24	10.4	1.91	3.98	1.74	3.85	1.89	4.17	1.66	3.47	3.23	12
